Laboratory results taken from US20040010001A1, “Methods and compositions for modulating cell proliferation and cell death” (priority 1999, published 2004).

How the values were obtained:
rat MAT-LyLu tumor cells [1] = assay: Reversal of CM-induced resistance by FGF antibodies and suramin, BrdU incorporation; assay type: cell-based; conditions: Rattus norvegicus, read-out: IC50 in the presence of 1.6 micromolar suramin; CM of lung metastases histocultures; unchanged in the absence or presence of 5 microgram/ml anti-bFGF antibody
Protocol: The source of CM was lung histocultures for the aFGF experiment, and early monolayer lung cultures for the bFGF experiment. The study used four controls: no CM (left solid curves, open circles); addition of 5 μg/ml aFGF or bFGF antibody but no CM (inverted filled triangle, overlaps with the left control curve); addition of CM but no antibody (right solid curves, open square); addition of CM plus a nonspecific antibody, IgG (5 μg/ml, filled diamond, overlaps with the right CM-control curve). Dotted curves, from right to left, addition of aFGF or bFGF antibody concentrations of 0.05 μg/ml (filled circle); 0.1 μg/ml (filled square); 1 or 0.5 μg/ml (filled triangle); and 5 μg/ml (open inverted triangle). […] Similar results were also found for human PC3 prostate tumor cells.
The first study used specific inhibitors of extracellular aFGF and bFGF, i.e., monoclonal antibodies (FIG. 2A). […] In the presence of the active CM, the bFGF antibody produced a concentration-dependent reversal of the CM-induced chemoresistance, with complete reversal by 5 microgram/ml antibody, whereas a nonspecific antibody (i.e., non-immune rabbit IgG) had no effect. For aFGF, the antibody treatment partially reversed the CM-induced resistance; the maximum reversal was about 60% that was obtained with 1 microgram/ml antibody with no significant additional reversal at a 5-fold higher concentration. The second study evaluated the effect of removing aFGF and/or bFGF from the active CM by immunoprecipitation. Removal of bFGF abolished the resistance, whereas removal of aFGF only partially reversed the CM effect. These two studies indicate that both aFGF and bFGF were involved in the resistance, but had different roles.
This study was performed using the rat MAT-LyLu tumor cells as the model tumor cells and using doxorubicin and paclitaxel as the model anticancer agents. The CM used to induce resistance was collected from histocultures of lung metastases (see Table 1). Five microgram/ml anti-bFGF antibody was added.

[2] = test system: bladder, breast, head and neck, ovarian and prostate tumors from human patients; assay: Paclitaxel in histocultures of tumors obtained from human patients; assay type: cell-based; conditions: 96 tumors; bladder 2 hours, remaining tumors 96 hours
Protocol: The third study examined the relationship between the levels of aFGF and bFGF in human tumors and tumor sensitivity to anticancer agents. This study was performed using 96 tumors obtained from human patients, including include bladder, breast, head and neck, ovarian and prostate tumors. Paclitaxel was used as the model drug. […] The drug-induced antiproliferation was measured by inhibition of DNA precursor incorporation, and apoptosis was measured by morphological changes and by labeling of nicked DNA. aFGF, bFGF and other proteins known to contribute to drug resistance (i.e. the mdr1 p-glycoprotein, p53 and bcl-2) were detected by immunohistochemical staining.

human PC3 lung tumors = assay: Lung tumors established by direct injection of PC3 cells into the lungs of immunodeficient mice; assay type: in vivo; conditions: doxorubicin three doses of 10 mg/kg, suramin three doses of 20 mg/kg, day 12
Protocol: Animal care was in accordance with the guidelines at the Ohio State University. Several human tumor models were used, including (a) lung metastases derived from intravenous injection of human PC3-LN tumor cells, (b) lung tumors derived from direct injection of human PC3 cells in lungs, and (c) subcutaneously implanted PC3 tumors. Four studies were performed. In all studies, drug treatment was administered intravenously via a tail vein, after the tumor was established. The first and second studies used the intravenous PC3-LN lung metastasis model. Briefly, human PC3-LN cells ([…] in 0.1 ml physiologic saline) were injected intravenously, via a tail vein, into immunodeficient mice. […] Treatment was given twice weekly for three weeks. […] The lung surface area (counted as number of pixel) occupied by the tumor was calculated as a fraction of the total lung area, using Adobe PhotoShop. The number of tumor cells in residual tumors and the fraction of apoptotic cells in each tumor were also determined microscopically. […] This was determined by counting the number of non-apoptotic tumor cells in randomly selected microscopic fields at 400× magnification. […] In the case of combination therapy where fewer than 5 tumor nodules remained per animal, all residual cells (between 20 to 600 cells per animal) were counted.

subcutaneous PC3 tumors = conditions: suramin 10 mg/kg, doxorubicin 5 mg/kg, twice weekly for 3 weeks
Protocol: Briefly, PC3 cells (5×10^6 cells) were injected subcutaneously.

[3] = test system: Human prostate PC3 tumor cells; assay: Intracellular drug accumulation with or without CM or r-bFGF; conditions: unchanged with or without CM or r-bFGF; 1 nM paclitaxel, 50 nM doxorubicin, 500 nM 5-fluorouracil; 4 hours
rat MAT-LyLu tumor cells [4] = assay: as above; conditions: unchanged with or without CM or r-bFGF; 10 nM paclitaxel, 100 nM doxorubicin, 500 nM 5-fluorouracil

| IC50 (rat MAT-LyLu tumor cells [1]) [nM] | plateau intracellular concentration [3] [pmol/10^6 cells] | plateau intracellular concentration (rat MAT-LyLu tumor cells [4]) [pmol/10^6 cells] | SMILES | tumors in which antiproliferation was produced [2] [%] | tumors in which apoptosis was induced [2] [%] | tumor-free animals (human PC3 lung tumors) [%] | effect on tumor growth (subcutaneous PC3 tumors) |
| --- | --- | --- | --- | --- | --- | --- | --- |
| 14 |  |  | CC(=O)O[C@H]1C(=O)[C@@]2(C)[C@H]([C@H](OC(=O)c3ccccc3)[C@]3(O)C[C@H](OC(=O)[C@H](O)[C@@H](NC(=O)c4ccccc4)c4ccccc4)C(C)=C1C3(C)C)[C@]1(OC(C)=O)CO[C@@H]1C[C@@H]2O [Paclitaxel] | 84 | 96 |  |  |
| 13 | 40 | 80 | COc1cccc2c1C(=O)c1c(O)c3c(c(O)c1C2=O)C[C@@](O)(C(=O)CO)C[C@@H]3O[C@H]1C[C@H](N)[C@H](O)[C@H](C)O1 [Doxorubicin] |  |  | 25 | reduced the tumor growth but did not cause tumor regression |
